Test results published in patent US7541020B2, “Aminoalkyl glucosaminide phosphate compounds and their use as adjuvants and immunoeffectors” (priority 1997, dated 2009).
Read-outs that look alike come from different tables or passages of the source.

What was measured:
influenza A/HK/68 [1] = test system: influenza A/HK/68; parameters: species or system ICR mice; details: mouse, in vivo
influenza A/HK/68 [2] = test system: influenza A/HK/68; parameters: species or system ICR mice; details: mouse, in vivo; remark: listed apart in the source
influenza A/HK/68 [3] = format: in vivo, ICR mice; details: mouse, in vivo
[4] = Fever response in rabbits (pyrogenicity); format: in vivo; details: 10 ug/kg; cumulative rise ≥1.5 degree in three rabbits is considered pyrogenic
Procedure: The AGP compounds were also evaluated for their tendency to induce a fever response in rabbits. Each compound was formulated in 10% (v/v) ethanol/water solution at 100 mg/ml, then diluted with D5W to the desired concentration. The material was injected at 3 ml/kg body weight into 3 rabbits. The rise in core temperature of the rabbits was recorded.

E.G7 (OVA) cells = details: s.c. 25 μg OVA in AGP preparation, spleen cells 21 days later
influenza A/HK/68 [5] = format: in vivo, BALB/c mice; details: mouse, in vivo
TNF-α = assay: Cytokine induction in human whole blood ex vivo culture: TNF-α (ELISA); format: cell-based; details: 4 hr
Method in brief: (§1)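 Compounds in 10% EtOH-water added at 1:10 to human whole blood, 4 hr at 37° C with rotation; RPMI-treated controls. After PBS dilution and centrifugation, supernatant TNF-α and IL-1β measured by ELISA.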

IL-1β = assay: Cytokine induction in human whole blood ex vivo culture: IL-1β (ELISA); format: cell-based; details: 4 hr
Method in brief: as §1

[6] = test system: hepatitis B surface antigen (HBsAg); assay: Serum anti-HBsAg antibody titers after intranasal HBsAg + AGP-AF (ELISA); format: in vivo, BALB/c mice; details: for Anti HBsAg Titer^−1 IgG1 / Anti HBsAg Titer^−1 IgG2a: K = 10^3
[7] = test system: hepatitis B surface antigen (HBsAg); assay: Vaginal wash anti-HBsAg antibody after intranasal HBsAg + AGP-AF; format: in vivo, BALB/c mice; details: 10 days after the booster immunization; intranasal HBsAg + 10 μg AGP-AF
Text: Vaginal samples were collected 10 days after the booster immunization and assayed for anti-HBsAg antibody.

[8] = test system: hepatitis B surface antigen (HBsAg); assay: Cytotoxic T-lymphocyte response to HBsAg with AGP in stable emulsion (AGP-SE); details: s.c. 2.0 μg HBsAg + 25 μg AGP/SE
[9] = test system: hepatitis B surface antigen (HBsAg); details: for % Cytotoxicity (d16, post 2°): HBsAg + 10 μg AGP-AF intranasally; for % Cytotoxicity (d8, post 3°): intranasal HBsAg + 10 μg AGP-AF
[10] = test system: hepatitis B surface antigen (HBsAg); assay: Anti-HBsAg antibody titer with AGP-SE (ELISA plates coated with HBsAg or p72 peptide); details: sera day 28 post 2°, 25 μg AGP-SE
[11] = day 22 post 2°, HBsAg + 10 μg AGP-AF intranasally
[12] = serum, day 21 post 3°, intranasal HBsAg + 10 μg AGP-AF
[13] = ELISA plates coated with p72 peptide

3-Hydroxy-(S)-2-[(R)-3-nonanoyloxytetradecanoylamino]propyl 2-Deoxy-4-O-phosphono-2-[(R)-3-nonanoyloxytetradecanoylamino]-3-O-[(R)-3-nonanoyloxytetradecanoyl]-β-D-glucopyranoside Triethylammonium Salt [B7]
Anti-influenza Titer^−1 Total IgG (influenza A/HK/68 [1]): 200
IgG Titer-1 post 1° (influenza A/HK/68 [2]): 3200
IgG Titer-1 post 2° (influenza A/HK/68 [2]): >102,400
Percent Survival post 1° (influenza A/HK/68 [2]): 60%
Percent Survival post 2° (influenza A/HK/68 [2]): 60%
Titer−1 IgG1 (influenza A/HK/68 [3]): 3200
Titer−1 IgG2a (influenza A/HK/68 [3]): 100
Titer−1 IgG2b (influenza A/HK/68 [3]): 1600
Titer−1 Total IgG (influenza A/HK/68 [3]): 3200
PYROGENICITY Total Rise ° C., 3 rabbits [4]: 4 °C
% Cytotoxicity (E.G7 (OVA) cells; E:T 12.5:1): 29%
% Cytotoxicity (E.G7 (OVA) cells; E:T 25:1): 44%
% Cytotoxicity (E.G7 (OVA) cells; E:T 50:1): 57%

N-[(R)-3-decanoyloxytetradecanoyl]-O-[2-deoxy-4-O-phosphono-2-[(R)-3-decanoyloxytetradecanoylamino]-3-O-[(R)-3-decanoyloxytetradecanoyl]-β-D-glucopyranosyl]-D-serine Triethylammonium Salt [B14]
Anti-influenza Titer^−1 Total IgG (influenza A/HK/68 [1]): 6400
Percent Survival (influenza A/HK/68 [1]): 44%
Anti-influenza Titer^−1 IgG1 (influenza A/HK/68 [5]): 6400
Anti-influenza Titer^−1 IgG2a (influenza A/HK/68 [5]): 3200
Anti-influenza Titer^−1 IgG2b (influenza A/HK/68 [5]): 6400
Anti-influenza Titer^−1 Total IgG (influenza A/HK/68 [5]): 3200
Percent Survival (influenza A/HK/68 [5]): 87.5%
IgG Titer-1 post 1° (influenza A/HK/68 [2]): 800
IgG Titer-1 post 2° (influenza A/HK/68 [2]): 51,200
Percent Survival post 1° (influenza A/HK/68 [2]): 33%
Percent Survival post 2° (influenza A/HK/68 [2]): 70%
Percent Survival (influenza A/HK/68 [3]): 30%
Titer^−1 IgG1 (influenza A/HK/68 [3]): 1600
Titer^−1 IgG2a (influenza A/HK/68 [3]): 100
Titer^−1 IgG2b (influenza A/HK/68 [3]): 400
Titer^−1 Total IgG (influenza A/HK/68 [3]): 800
TNF-α (TNF-α; Dosage 500 ng/ml, Table 17): 49 pg/mL
TNF-α (TNF-α; Dosage 1000 ng/ml, Table 16): 56 pg/mL
TNF-α (TNF-α; Dosage 1000 ng/ml, Table 17): 51 pg/mL
TNF-α (TNF-α; Dosage 5000 ng/ml, Table 16): 120 pg/mL
TNF-α (TNF-α; Dosage 5000 ng/ml, Table 17): 87 pg/mL
TNF-α (TNF-α; Dosage 10,000 ng/ml, Table 16): 249 pg/mL
TNF-α (TNF-α; Dosage 10,000 ng/ml, Table 17): 114 pg/mL
IL-1β (IL-1β; Dosage 500 ng/ml, Table 17): 19.9 pg/mL
IL-1β (IL-1β; Dosage 1000 ng/ml, Table 16): 46 pg/mL
IL-1β (IL-1β; Dosage 1000 ng/ml, Table 17): 10.0 pg/mL
IL-1β (IL-1β; Dosage 5000 ng/ml, Table 16): 71 pg/mL
IL-1β (IL-1β; Dosage 5000 ng/ml, Table 17): 19.0 pg/mL
IL-1β (IL-1β; Dosage 10,000 ng/ml, Table 16): 91 pg/mL
IL-1β (IL-1β; Dosage 10,000 ng/ml, Table 17): 24.6 pg/mL
% Cytotoxicity (E.G7 (OVA) cells; E:T 12.5:1): 25%
% Cytotoxicity (E.G7 (OVA) cells; E:T 25:1): 36%
% Cytotoxicity (E.G7 (OVA) cells; E:T 50:1): 45%

4-Hydroxy-(S)-2-[(R)-3-decanoyloxytetradecanoyl]butyl 2-Deoxy-4-O-phosphono-2-[(R)-3-decanoyloxytetradecanoylamino]-3-O-[(R)-3-decanoyltetradecanoyl]-β-D-glucopyranoside Triethylammonium Salt [B10]
Anti-influenza Titer^−1 Total IgG (influenza A/HK/68 [1]): 1600
Percent Survival (influenza A/HK/68 [1]): 40%
Anti-influenza Titer^−1 IgG1 (influenza A/HK/68 [5]): 400
Anti-influenza Titer^−1 IgG2a (influenza A/HK/68 [5]): 400
Anti-influenza Titer^−1 IgG2b (influenza A/HK/68 [5]): 400
Anti-influenza Titer^−1 Total IgG (influenza A/HK/68 [5]): 400
Percent Survival (influenza A/HK/68 [5]): 62.5%
IgG Titer-1 post 1° (influenza A/HK/68 [2]): 1600
IgG Titer-1 post 2° (influenza A/HK/68 [2]): 25,600
Percent Survival post 1° (influenza A/HK/68 [2]): 60%
Percent Survival post 2° (influenza A/HK/68 [2]): 90%
TNF-α (TNF-α; Dosage 1000 ng/ml, Table 15): 73 pg/mL
TNF-α (TNF-α; Dosage 5000 ng/ml, Table 15): 127 pg/mL
TNF-α (TNF-α; Dosage 10,000 ng/ml, Table 15): 207 pg/mL
IL-1β (IL-1β; Dosage 1000 ng/ml, Table 15): 17 pg/mL
IL-1β (IL-1β; Dosage 5000 ng/ml, Table 15): 61 pg/mL
IL-1β (IL-1β; Dosage 10,000 ng/ml, Table 15): 43 pg/mL
PYROGENICITY Total Rise ° C., 3 rabbits [4]: 5.8 °C
% Cytotoxicity (E.G7 (OVA) cells; E:T 12.5:1): 38%
% Cytotoxicity (E.G7 (OVA) cells; E:T 25:1): 56%
% Cytotoxicity (E.G7 (OVA) cells; E:T 50:1): 65%

4-Hydroxy-(S)-3-[(R)-3-decanoyloxytetradecanoyl]butyl 2-Deoxy-4-O-phosphono-2-[(R)-3-decanoyloxytetradecanoylamino]-3-O-[(R)-3-decanoyltetradecanoyl]-β-D-glucopyranoside Triethylammonium Salt [B9]
Anti-influenza Titer^−1 Total IgG (influenza A/HK/68 [1]): 6400
Percent Survival (influenza A/HK/68 [1]): 44%
Anti-influenza Titer^−1 IgG1 (influenza A/HK/68 [5]): 1600
Anti-influenza Titer^−1 IgG2a (influenza A/HK/68 [5]): 3200
Anti-influenza Titer^−1 IgG2b (influenza A/HK/68 [5]): 800
Anti-influenza Titer^−1 Total IgG (influenza A/HK/68 [5]): 1600
Percent Survival (influenza A/HK/68 [5]): 87.5%
IgG Titer-1 post 1° (influenza A/HK/68 [2]): 6400
IgG Titer-1 post 2° (influenza A/HK/68 [2]): 12,800
Percent Survival post 1° (influenza A/HK/68 [2]): 80%
Percent Survival post 2° (influenza A/HK/68 [2]): 50%
TNF-α (TNF-α; Dosage 1000 ng/ml, Table 15): 145 pg/mL
TNF-α (TNF-α; Dosage 5000 ng/ml, Table 15): 247 pg/mL
TNF-α (TNF-α; Dosage 10,000 ng/ml, Table 15): 449 pg/mL
IL-1β (IL-1β; Dosage 1000 ng/ml, Table 15): 53 pg/mL
IL-1β (IL-1β; Dosage 5000 ng/ml, Table 15): 84 pg/mL
IL-1β (IL-1β; Dosage 10,000 ng/ml, Table 15): 96 pg/mL
PYROGENICITY Total Rise ° C., 3 rabbits [4]: 3.1 °C
% Cytotoxicity (E.G7 (OVA) cells; E:T 12.5:1): 36%
% Cytotoxicity (E.G7 (OVA) cells; E:T 25:1): 55%
% Cytotoxicity (E.G7 (OVA) cells; E:T 50:1): 65%

3-Hydroxy-(S)-2-[(R)-3-dodecanoyloxytetradecanoylamino]propyl 2-Deoxy-4-O-phosphono-2-[(R)-3-dodecanoyloxytetradecanoylamino]-3-O-[(R)-3-dodecanoyloxytetradecanoyl]-β-D-glucopyranoside Triethylammonium Salt [B3]
Percent Survival (influenza A/HK/68 [1]): 33%
Anti-influenza Titer^−1 IgG1 (influenza A/HK/68 [5]): 3200
Anti-influenza Titer^−1 IgG2b (influenza A/HK/68 [5]): 800
Anti-influenza Titer^−1 Total IgG (influenza A/HK/68 [5]): 3200
Percent Survival (influenza A/HK/68 [5]): 87.5%
IgG Titer-1 post 1° (influenza A/HK/68 [2]): 3200
IgG Titer-1 post 2° (influenza A/HK/68 [2]): 102,400
Percent Survival post 1° (influenza A/HK/68 [2]): 70%
Percent Survival post 2° (influenza A/HK/68 [2]): 60%
Percent Survival (influenza A/HK/68 [3]): 0%
Titer−1 IgG2a (influenza A/HK/68 [3]): 50
Titer−1 IgG2b (influenza A/HK/68 [3]): 800
Anti HBsAg Titer^−1 IgA [6, 11]: 6,400
Anti HBsAg Titer^−1 IgG1 [6, 11]: 1000K
Anti HBsAg Titer^−1 IgG2a [6, 11]: 500K
Anti HBsAg Titer^−1 IgG1 [6, 12]: 1000K
Anti HBsAg Titer^−1 IgG2a [6, 12]: 1000K
Anti HBsAg Titer^−1 IgA [6, 12]: 25,600
Vaginal Wash Anti-HBsAg Titer^−1 IgA [7]: 1600
Vaginal Wash Anti-HBsAg Titer^−1 IgG [7]: 800
% Cytotoxicity ([8]; d16, post 2°, E:T 6.25:1): 22%
% Cytotoxicity ([8]; d16, post 2°, E:T 12.5:1): 32%
% Cytotoxicity ([8]; d16, post 2°, E:T 25:1): 47%
% Cytotoxicity ([8]; d16, post 2°, E:T 50:1): 81%
% Cytotoxicity ([8]; d17, post 1°, E:T 6.25:1): 5%
% Cytotoxicity ([8]; d17, post 1°, E:T 12.5:1): 9%
% Cytotoxicity ([8]; d17, post 1°, E:T 25:1): 15%
% Cytotoxicity ([8]; d17, post 1°, E:T 50:1): 28%
PYROGENICITY Total Rise ° C., 3 rabbits [4]: 4.2 °C
% Cytotoxicity (E.G7 (OVA) cells; E:T 12.5:1): 42%
% Cytotoxicity (E.G7 (OVA) cells; E:T 25:1): 54%
% Cytotoxicity (E.G7 (OVA) cells; E:T 50:1): 65%
% Cytotoxicity (d16, post 2°) ([9]; E/T 6.25:1): 11%
% Cytotoxicity (d8, post 3°) ([9]; E/T 6.25:1): 20%
% Cytotoxicity (d16, post 2°) ([9]; E/T 12.5:1): 17%
% Cytotoxicity (d8, post 3°) ([9]; E/T 12.5:1): 32%
% Cytotoxicity (d16, post 2°) ([9]; E/T 25:1): 26%
% Cytotoxicity (d8, post 3°) ([9]; E/T 25:1): 45%
% Cytotoxicity (d16, post 2°) ([9]; E/T 50:1): 43%
% Cytotoxicity (d8, post 3°) ([9]; E/T 50:1): 54%
Anti-HBsAg Titer^−1 HBsAg IgG1 ([10]; ELISA plates coated with HBsAg): 512K
Anti-HBsAg Titer^−1 HBsAg IgG2a ([10]; ELISA plates coated with HBsAg): 1024K
Anti-HBsAg Titer^−1 p72-Peptide IgG1 [10, 13]: 16K
Anti-HBsAg Titer^−1 p72-Peptide IgG2a [10, 13]: 128K
